These results are taken from ChEMBL document CHEMBL5727778, “Pyrimidine derivative and use thereof” (2020).

Structures are written as SMILES.

The target in this assay is ALK tyrosine kinase receptor (Homo sapiens, UniProt Q9UM73). The experiment in a line: Inhibition Assay: 1× Kinase Buffer 50 mM HEPES. pH 7.5 0.0015% Brij-35 10 mM MgCl2 2 mM DTT 2) stop buffer 100 mM HEPES, pH 7.5 0.015% Brij-35 0.2% Coating Reagent #3 50 mM EDTAPrepare a Compound Solution to be Tested Step 2.1 Dilute the compound to 50× of the final desired highest inhibitor concentration in reaction by 100% DMSO. Transfer 100 μl of this compound dilution to a well in a 96-well plate. For example, if desired highest inhibitor concentration is 1 μM, then prepare 50 μM of compound DMSO solution in this step.
ALK tyrosine kinase receptor, sequence (Q9UM73 whole entry): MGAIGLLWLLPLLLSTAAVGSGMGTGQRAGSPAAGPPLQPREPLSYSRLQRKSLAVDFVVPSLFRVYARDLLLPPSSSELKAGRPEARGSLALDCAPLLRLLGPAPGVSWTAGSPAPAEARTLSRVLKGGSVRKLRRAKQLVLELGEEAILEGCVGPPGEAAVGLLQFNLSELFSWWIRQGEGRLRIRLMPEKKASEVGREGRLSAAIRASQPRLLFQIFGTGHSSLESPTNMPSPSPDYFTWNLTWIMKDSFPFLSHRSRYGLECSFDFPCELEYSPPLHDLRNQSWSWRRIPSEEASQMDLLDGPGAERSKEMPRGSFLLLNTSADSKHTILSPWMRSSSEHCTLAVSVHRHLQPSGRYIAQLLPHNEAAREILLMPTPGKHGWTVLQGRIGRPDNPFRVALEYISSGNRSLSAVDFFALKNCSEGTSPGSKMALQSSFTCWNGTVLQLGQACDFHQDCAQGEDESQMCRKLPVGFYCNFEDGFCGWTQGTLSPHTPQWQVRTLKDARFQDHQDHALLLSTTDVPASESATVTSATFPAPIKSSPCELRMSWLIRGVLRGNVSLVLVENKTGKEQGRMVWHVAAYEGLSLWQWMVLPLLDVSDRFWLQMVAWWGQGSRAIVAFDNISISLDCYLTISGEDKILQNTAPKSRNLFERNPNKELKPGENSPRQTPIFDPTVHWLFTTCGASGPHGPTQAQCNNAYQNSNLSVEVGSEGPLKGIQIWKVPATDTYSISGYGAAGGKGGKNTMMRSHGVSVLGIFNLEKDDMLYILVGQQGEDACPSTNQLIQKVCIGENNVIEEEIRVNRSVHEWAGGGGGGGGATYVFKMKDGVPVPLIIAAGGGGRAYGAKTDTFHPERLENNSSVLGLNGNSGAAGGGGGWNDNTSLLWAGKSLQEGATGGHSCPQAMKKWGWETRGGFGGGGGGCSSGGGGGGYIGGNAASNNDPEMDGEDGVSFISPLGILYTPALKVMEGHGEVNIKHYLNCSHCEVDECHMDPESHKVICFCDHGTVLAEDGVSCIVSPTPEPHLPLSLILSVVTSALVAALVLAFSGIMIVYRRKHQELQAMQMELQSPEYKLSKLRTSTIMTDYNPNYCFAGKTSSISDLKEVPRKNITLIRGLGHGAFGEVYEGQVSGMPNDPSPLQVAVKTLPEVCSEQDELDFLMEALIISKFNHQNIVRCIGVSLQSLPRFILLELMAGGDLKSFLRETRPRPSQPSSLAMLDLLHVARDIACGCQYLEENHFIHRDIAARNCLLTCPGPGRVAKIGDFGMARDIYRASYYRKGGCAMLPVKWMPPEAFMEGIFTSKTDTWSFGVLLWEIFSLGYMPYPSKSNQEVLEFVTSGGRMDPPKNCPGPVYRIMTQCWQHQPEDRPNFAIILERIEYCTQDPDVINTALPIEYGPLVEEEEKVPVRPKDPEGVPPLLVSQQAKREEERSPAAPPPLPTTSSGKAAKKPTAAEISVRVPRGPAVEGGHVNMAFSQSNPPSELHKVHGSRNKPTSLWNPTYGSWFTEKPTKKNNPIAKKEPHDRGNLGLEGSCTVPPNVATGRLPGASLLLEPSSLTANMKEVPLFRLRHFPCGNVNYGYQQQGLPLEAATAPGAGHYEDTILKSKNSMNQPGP

`COc1cc(N2CCC(O)CC2)ccc1Nc1ncc(Cl)c(Nc2ccsc2S(=O)(=O)C(C)C)n1` had an IC50 of less than 1 nM.
As for `COc1cc(N2CCOCC2)ccc1Nc1ncc(Cl)c(Nc2ccsc2S(=O)(=O)C(C)C)n1`, the IC50 was less than 1 nM.
As for `COc1cc(N2CCN(C)CC2)ccc1Nc1ncc(Cl)c(Nc2ccccc2S(=O)(=O)C(C)C)n1`, the figure is less than 1 nM; as for `COc1cc(N2CCC(N(C)C)CC2)ccc1Nc1ncc(Cl)c(Nc2ccsc2S(=O)(=O)C(C)C)n1`, less than 1 nM.
As for `COc1cc(N2CCC(N(C)C)CC2)ccc1Nc1ncc(Cl)c(Nc2ccccc2S(=O)(=O)C(C)C)n1`, the figure is less than 1 nM; as for `COc1cc(N2CCN(C)CC2)ccc1Nc1ncc(Cl)c(Nc2ccsc2S(=O)(=O)C(C)C)n1`, less than 1 nM; as for `CC(C)S(=O)(=O)c1ccccc1Nc1nc(Nc2ccc(N3CCC(N(C)C)CC3)cc2OC(F)F)ncc1Cl`, less than 1 nM.
In turn, `COc1cc(N2CCC(N3CCOCC3)CC2)ccc1Nc1ncc(Cl)c(Nc2ccsc2S(=O)(=O)C(C)C)n1` came in with an IC50 of less than 1 nM.
Then `COc1cc(N2CCC(N3CCC(N(C)C)CC3)CC2)ccc1Nc1ncc(Cl)c(Nc2ccccc2S(=O)(=O)C(C)C)n1`, with less than 1 nM.
